Measured values published in US12421242B2, “Substituted tetrahydropyrrolo-pyridinone compounds and their use in treating medical conditions” (Karuna Therapeutics, Inc., priority 2022, dated 2025).

Legend:
hM4 receptors = target: T1, hM4 receptors (Homo sapiens, UniProt P08173); assay: Human M4 PAM pERK assay; format: cell-based; settings: PAM mode
T1 construct: expressed in transfected cells; host or cells: CHO cells
T1 sequence (P08173 1-479): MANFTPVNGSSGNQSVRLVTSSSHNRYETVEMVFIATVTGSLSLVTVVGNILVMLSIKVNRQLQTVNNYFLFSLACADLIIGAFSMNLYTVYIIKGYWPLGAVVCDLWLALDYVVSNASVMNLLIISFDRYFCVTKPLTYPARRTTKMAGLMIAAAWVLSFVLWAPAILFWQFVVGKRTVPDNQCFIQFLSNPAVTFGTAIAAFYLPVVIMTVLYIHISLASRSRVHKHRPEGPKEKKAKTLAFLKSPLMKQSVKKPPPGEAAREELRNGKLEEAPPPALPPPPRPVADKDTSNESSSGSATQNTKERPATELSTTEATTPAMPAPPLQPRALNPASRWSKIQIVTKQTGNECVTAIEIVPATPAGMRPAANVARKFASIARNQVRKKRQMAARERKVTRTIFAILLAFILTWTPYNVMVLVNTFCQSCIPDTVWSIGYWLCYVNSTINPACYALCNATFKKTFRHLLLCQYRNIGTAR
Experimental: (§1) Chinese hamster ovary (CHO) cells expressing either hM4 or rM4 receptors were frozen in assay ready vials (5×10^6 cells/vial) after bulking-up in culture. The day before an assay, vial(s) were thawed and cells seeded in 384 well white proxiplates at 1000/well for hM4 cells and at 2000/well for rM4 cells, in 10 μL of growth media (Hams/F12 with glutamax and 10% FCS) and incubated overnight at 37° C./5% CO2.
(§2) On the following morning, the growth media was removed by ‘flicking out’ over a bin, patting the inverted plate onto tissue, and then replacing with 10 μL of wash media (Hams/F12 with glutamax and 8 mM HEPES, NB: serum free). Then, the wash media was removed in the same way and replaced with 8 μL/well of the serum free media. Plates were then re-incubated for a further 4 hours at 37° C./5% CO2.
(§3) Compounds for testing were solubilized to 10 mM in DMSO and compound addition plates, consisting of ten-point concentration response curves (CRC) in duplicate points (10 μM top concentration, […]), were prepared by acoustic dispensing and the compound management group.
(§4) After the 4-hour incubation in serum free media, a 4 μL aliquot of the 3× compound solution containing an EC20 of acetylcholine (10 nM final concentration) was added to the cell plate using a 384 well plate to plate transfer. Then, the plate lid was replaced, and the cells incubated for 5 mins at 37° C./5% CO2. Following this final incubation, all cellular processes were stopped by the addition of 4 μL/well of lysis and blocking buffer and plates were incubated for 30 minutes at RT on an orbital shaker (gentle setting). Then, a final addition of 4 μL/well of antibody detection mix, containing both the Europium-Cryptate (donor) and d2 (acceptor) tagged detection components, was added followed by a further 2-hour incubation at RT, and then the plate was read using a TR-FRET (time resolved fluorescence resonance energy transfer) based protocol.

rM4 receptors = target: T2, rM4 receptors (Rattus norvegicus, UniProt P08485); assay: Rat M4 PAM pERK assay; format: cell-based; settings: PAM mode
T2 construct: expressed in transfected cells; host or cells: CHO cells
T2 sequence (P08485 1-478): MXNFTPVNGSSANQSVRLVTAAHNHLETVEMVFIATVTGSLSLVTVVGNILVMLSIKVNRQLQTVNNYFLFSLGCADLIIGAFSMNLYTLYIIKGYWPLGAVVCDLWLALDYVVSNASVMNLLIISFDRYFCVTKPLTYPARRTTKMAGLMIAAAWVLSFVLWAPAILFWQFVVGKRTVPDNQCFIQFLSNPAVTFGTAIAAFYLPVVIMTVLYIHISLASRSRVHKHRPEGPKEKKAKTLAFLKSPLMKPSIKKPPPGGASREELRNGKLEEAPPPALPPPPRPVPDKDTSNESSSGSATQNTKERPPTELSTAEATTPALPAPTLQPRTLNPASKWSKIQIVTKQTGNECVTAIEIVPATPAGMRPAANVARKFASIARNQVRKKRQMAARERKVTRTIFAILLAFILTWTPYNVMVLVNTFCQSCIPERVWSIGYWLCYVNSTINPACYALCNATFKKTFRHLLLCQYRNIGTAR
Experimental: as §1, §2, §3, §4

Row | EC50 (hM4 receptors) [nM] | EC50 (rM4 receptors) [nM] | Compound
1 | < 100 | > 2000 | Cc1c2c(n(C)c(=O)c1Cl)CN(C(=O)c1cnn(C)c1)C2 [Compound I-2]
2 | 500 to 2000 | > 2000 | Cc1c2c(n(C)c(=O)c1Cl)CN(C(=O)c1cn(C)cn1)C2 [Compound I-4]
3 | 500 to 2000 | > 2000 | Cc1c2c(n(C)c(=O)c1Cl)CN(C(=O)c1cnn(CC(C)C)c1)C2 [Compound I-5]
4 | 100 to 500 | > 2000 | Cc1c2c(n(C)c(=O)c1Cl)CN(C(=O)c1cnn(C(C)C)c1)C2 [Compound I-10]
5 | 100 to 500 | 500 to 2000 | Cc1c2c(n(C)c(=O)c1Cl)CN(C(=O)c1cnn(Cc3ccccc3)c1)C2 [Compound I-23]
6 | 500 to 2000 | > 2000 | Cc1c2c(n(C)c(=O)c1Cl)CN(C(=O)c1cnn(CC3CC3)c1)C2 [Compound I-27]
7 | 100 to 500 | 500 to 2000 | Cc1c2c(n(C)c(=O)c1Cl)CN(C(=O)c1cnc(CC(C)C)s1)C2 [Compound I-34]
8 | > 2000 | > 2000 | Cc1c2c(n(C)c(=O)c1Cl)CN(C(=O)c1cnn(CC3(C)COC3)c1)C2 [Compound I-53, 3-Chloro-1,4-dimethyl-6-(1-((3-methyloxetan-3-yl)methyl)-1H-pyrazole-4-carbonyl)-1,5,6,7-tetrahydro-2H-pyrrolo[3,4-b]pyridin-2-one]
9 | 100 to 500 | > 2000 | Cc1c2c(n(C)c(=O)c1Cl)CN(C(=O)c1cnn(CC3COC3)c1)C2 [Compound I-54]
10 | 100 to 500 | > 2000 | Cc1c2c(n(C)c(=O)c1Cl)CN(C(=O)c1cnn(CC3CCCC3)c1)C2 [Compound I-55]
11 | > 2000 | > 2000 | Cc1c2c(n(C)c(=O)c1Cl)CN(C(=O)c1cnn(CC3CCOC3)c1)C2 (stereo not drawn) [Compound I-56]
12 | > 2000 | > 2000 | Cc1c2c(n(C)c(=O)c1Cl)CN(C(=O)c1cnn(Cc3ccc(C(F)(F)F)nc3)c1)C2 [Compound I-57]
13 | 500 to 2000 | > 2000 | Cc1c2c(n(C)c(=O)c1Cl)CN(C(=O)c1cnn(Cc3cccnc3)c1)C2 [Compound I-59, 3-Chloro-1,4-dimethyl-6-(1-(pyridin-3-ylmethyl)-1H-pyrazole-4-carbonyl)-1,5,6,7-tetrahydro-2H-pyrrolo[3,4-b]pyridin-2-one]
14 | 100 to 500 | > 2000 | Cc1c2c(n(C)c(=O)c1Cl)CN(C(=O)c1cnn(Cc3ccncc3)c1)C2 [Compound I-60]
15 | 500 to 2000 | > 2000 | Cc1c2c(n(C)c(=O)c1Cl)CN(C(=O)c1cnn(CC(F)(F)F)c1)C2 [Compound I-61]

Second part, the compound before the results:

Row | Compound | EC50 (hM4 receptors) [nM] | EC50 (rM4 receptors) [nM]
16 | Cc1cc(=O)n(C)c2c1C(C)N(C(=O)c1ccc3nc(C(F)(F)F)sc3c1)C2 (single isomer, unassigned) [Compound I-101] | 100 to 500 | > 2000
17 | Cc1cc(=O)n(C)c2c1CN(C(=O)c1cnn(C)c1)C2C (single isomer, unassigned) [Compound I-107, 1,4,7-Trimethyl-6-(1-methyl-1H-pyrazole-4-carbonyl)-1,5,6,7-tetrahydro-2H-pyrrolo[3,4-b]pyridin-2-one] | > 2000 | > 2000
18 | Cc1c2c(n(C)c(=O)c1Cl)CN(C(=O)c1ccc(C(C)(C)C)s1)C2 [Compound I-7] | 500 to 2000 | > 2000
19 | Cc1c2c(n(C)c(=O)c1Cl)CN(C(=O)c1cn(C(F)(F)F)cn1)C2 [Compound I-15] | 100 to 500 | > 2000
20 | Cc1c2c(n(C)c(=O)c1Cl)CN(C(=O)c1ccn(C(F)(F)F)n1)C2 [Compound I-16] | 100 to 500 | > 2000
21 | Cc1c2c(n(C)c(=O)c1Cl)CN(C(=O)c1cn3c(n1)COCC3)C2 [Compound I-25] | 500 to 2000 | > 2000
22 | Cc1c2c(n(C)c(=O)c1Cl)CN(C(=O)c1ncc3ccccn13)C2 [Compound I-31] | > 2000 | > 2000
23 | Cc1c2c(n(C)c(=O)c1Cl)CN(C(=O)c1cn3c(n1)CCC3)C2 [Compound I-33] | 100 to 500 | > 2000
24 | Cc1c2c(n(C)c(=O)c1Cl)CN(C(=O)c1cnc(C3CCC3)s1)C2 [Compound I-35] | 100 to 500 | > 2000
25 | Cc1c2c(n(C)c(=O)c1Cl)CN(C(=O)c1cnn3c1CCC3)C2 [Compound I-37] | > 2000 | > 2000
26 | COCc1ncc(C(=O)N2Cc3c(C)c(Cl)c(=O)n(C)c3C2)s1 [Compound I-38] | 100 to 500 | > 2000
27 | Cc1c2c(n(C)c(=O)c1Cl)CN(C(=O)c1cnc(CC(F)(F)F)s1)C2 [Compound I-39] | 500 to 2000 | > 2000
28 | Cc1c2c(n(C)c(=O)c1Cl)CN(C(=O)c1ccc3nonc3c1)C2 [Compound I-43] | 100 to 500 | 500 to 2000
29 | Cc1c2c(n(C)c(=O)c1Cl)CN(C(=O)c1ccc3ncsc3c1)C2 [Compound I-46] | < 100 | 500 to 2000
30 | Cc1c2c(n(C)c(=O)c1Cl)CN(C(=O)c1ccc3cncn3c1)C2 [Compound I-47] | < 100 | 500 to 2000
31 | Cc1c2c(n(C)c(=O)c1Cl)CN(C(=O)c1ccc3c(c1)COC3)C2 [Compound I-50] | 100 to 500 | 100 to 500
32 | Cc1c2c(n(C)c(=O)c1Cl)CN(C(=O)c1ccc3nc(C4CCC4)sc3c1)C2 [Compound I-51, 3-Chloro-6-(2-cyclobutylbenzo[d]thiazole-6-carbonyl)-1,4-dimethyl-1,5,6,7-tetrahydro-2H-pyrrolo[3,4-b]pyridin-2-one] | < 100 | 100 to 500
33 | Cc1c2c(n(C)c(=O)c1Cl)CN(C(=O)c1cc(CC(F)(F)F)on1)C2 [Compound I-58, 3-Chloro-1,4-dimethyl-6-(5-(2,2,2-trifluoroethyl)isoxazole-3-carbonyl)-1,5,6,7-tetrahydro-2H-pyrrolo[3,4-b]pyridin-2-one] | 500 to 2000 | > 2000
34 | Cc1c2c(n(C)c(=O)c1Cl)CN(C(=O)c1cnc(CC3CC3(F)F)s1)C2 (stereo not drawn) [Compound I-65] | < 100 | 500 to 2000
35 | Cc1c2c(n(C)c(=O)c1Cl)CN(C(=O)c1cc(C(F)(F)F)n(C)c1)C2 [Compound I-68, 3-Chloro-1,4-dimethyl-6-(1-methyl-5-(trifluoromethyl)-1H-pyrrole-3-carbonyl)-1,5,6,7-tetrahydro-2H-pyrrolo[3,4-b]pyridin-2-one] | < 100 | 100 to 500
36 | Cc1c2c(n(CC3CC3)c(=O)c1Cl)CN(C(=O)c1cnc(CC3CC3)s1)C2 [Compound I-69, 3-Chloro-1-(cyclopropylmethyl)-6-(2-(cyclopropylmethyl)thiazole-5-carbonyl)-4-methyl-1,5,6,7-tetrahydro-2H-pyrrolo[3,4-b]pyridin-2-one] | 100 to 500 | > 2000
37 | Cc1c2c(n(CC3CC3)c(=O)c1Cl)CN(C(=O)c1ccc3nc(C4CCC4)sc3c1)C2 [Compound I-70] | 100 to 500 | 100 to 500
38 | Cc1c2c(n(C)c(=O)c1Cl)CN(C(=O)c1cnn(C(F)F)c1)[C@@H]2C [Compound I-77] | < 100 | 100 to 500
39 | Cc1c2c(n(C)c(=O)c1C)CN(C(=O)c1cnn(C(F)(F)F)c1)[C@@H]2C [Compound I-78, (R)-1,3,4,5-Tetramethyl-6-(1-(trifluoromethyl)-1H-pyrazole-4-carbonyl)-1,5,6,7-tetrahydro-2H-pyrrolo[3,4-b]pyridin-2-one] | < 100 | 100 to 500
